{"source": "ChEMBL document CHEMBL1201862", "about": "“PubChem BioAssay data set” (2004)", "key": {"[1]": {"assay": "HEK-293T viability loss after treatment – luminescence, T-cell screen hits, cytotoxicity control for TCR NF-kB inhibitor project, dose response (AID 489026);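 also: cells exposed to compound about 14 hours before the viability readout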", "type": "functional, cell-based"}, "[2]": {"assay": "reduction of Shn3 3'UTR-driven luciferase in osteoblasts – cell-based, Clone20 osteoblasts, firefly luciferase, cherry-picked, dose response (AID 624132)", "type": "functional"}, "[3]": {"assay": "loss of viability in HepG2 cells – cell-based, CellTiter-Glo, cherry-picked, cytotoxicity control for Shn3 inhibitor project, dose response (AID 624134)", "type": "functional"}, "[4]": {"assay": "non-specific 3'UTR reporter inhibition in Clone20-Shn3RL – cell-based, Renilla luciferase, cherry-picked, counter-screen for Shn3 inhibitor project, dose response (AID 624133)", "type": "functional"}, "Protein Wnt-3a": {"target": "Protein Wnt-3a (Mus musculus, UniProt P27467)", "sequence (P27467 whole entry)": "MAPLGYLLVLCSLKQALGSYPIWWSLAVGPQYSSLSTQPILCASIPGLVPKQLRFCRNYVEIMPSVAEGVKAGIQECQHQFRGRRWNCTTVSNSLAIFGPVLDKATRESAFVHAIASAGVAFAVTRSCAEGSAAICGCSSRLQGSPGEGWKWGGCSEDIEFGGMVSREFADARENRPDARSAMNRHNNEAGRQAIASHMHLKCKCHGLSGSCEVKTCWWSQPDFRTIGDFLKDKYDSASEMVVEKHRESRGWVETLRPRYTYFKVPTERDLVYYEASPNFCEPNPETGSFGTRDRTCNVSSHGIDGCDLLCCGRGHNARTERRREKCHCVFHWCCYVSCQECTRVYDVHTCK", "assay": "antagonism of Wnt3a pathway luciferase reporter – Wnt-LIGHT cells, luminescence, selectivity assay for Gli-SUFU antagonist project, dose response (AID 651570);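 also: Wnt-LIGHT reporter cells stimulated with conditioned medium from Wnt3a-producing cells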", "type": "functional", "details": "read-out: IC50_Mean"}, "[5]": {"assay": "A549 cell cytotoxicity, dose response, cytotoxicity control, plate reader, cherry-pick, antagonist series (AID 743412)", "type": "functional, cell-based"}, "[6]": {"assay": "blockers of bursicon-stimulated LGR2 cAMP reporter – cell-based, HEK293, CRE-luciferase reporter, cherry pick, set 2, dose response (AID 743343);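 also: transfected cells were stimulated with diluted bursicon conditioned medium after compound addition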", "type": "functional"}, "[7]": {"assay": "blockade of melanocortin 4 receptor signaling – cell-based, plate reader, cherry pick, counter-screen for LGR2 antagonist project, dose response (AID 743444);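 also: transfected HEK 293 cells stimulated with alpha-MSH peptide; potency of inhibitors of the alpha-MSH evoked signal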", "type": "functional"}, "[8]": {"target": "Induced myeloid leukemia cell differentiation protein Mcl-1 (Homo sapiens, UniProt Q07820)", "sequence (Q07820 whole entry)": "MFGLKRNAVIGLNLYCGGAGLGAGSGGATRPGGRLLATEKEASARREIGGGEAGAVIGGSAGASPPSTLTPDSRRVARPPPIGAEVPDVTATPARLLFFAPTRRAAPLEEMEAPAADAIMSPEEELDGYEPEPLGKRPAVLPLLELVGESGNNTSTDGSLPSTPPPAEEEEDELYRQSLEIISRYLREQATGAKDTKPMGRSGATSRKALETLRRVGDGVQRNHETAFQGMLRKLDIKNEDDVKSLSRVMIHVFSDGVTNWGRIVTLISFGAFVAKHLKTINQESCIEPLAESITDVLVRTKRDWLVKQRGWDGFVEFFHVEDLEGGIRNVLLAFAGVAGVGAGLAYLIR", "type": "functional"}, "[9]": {"target": "T1, Mannose-6-phosphate isomerase (Homo sapiens, UniProt P34949)", "T1 sequence (P34949 whole entry)": "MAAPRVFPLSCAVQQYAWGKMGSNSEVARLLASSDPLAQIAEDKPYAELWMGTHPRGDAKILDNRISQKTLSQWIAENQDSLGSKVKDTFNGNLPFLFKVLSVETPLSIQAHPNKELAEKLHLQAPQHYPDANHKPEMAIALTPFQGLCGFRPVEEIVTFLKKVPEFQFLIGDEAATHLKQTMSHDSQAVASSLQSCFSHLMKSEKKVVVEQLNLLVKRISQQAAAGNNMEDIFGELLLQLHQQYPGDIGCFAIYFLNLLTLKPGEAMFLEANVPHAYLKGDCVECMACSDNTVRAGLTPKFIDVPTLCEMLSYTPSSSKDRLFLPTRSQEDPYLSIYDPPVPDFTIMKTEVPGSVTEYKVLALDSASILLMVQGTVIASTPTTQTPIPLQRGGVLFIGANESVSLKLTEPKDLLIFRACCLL", "assay": "MPI inhibition at elevated mannose 6-phosphate – biochemical, fluorescence intensity, high mannose 6-phosphate, primary screen (AID 1220)"}, "[10]": {"target": "T2, Heat shock factor protein 1 (Mus musculus, UniProt P38532)", "T2 sequence (P38532 whole entry)": "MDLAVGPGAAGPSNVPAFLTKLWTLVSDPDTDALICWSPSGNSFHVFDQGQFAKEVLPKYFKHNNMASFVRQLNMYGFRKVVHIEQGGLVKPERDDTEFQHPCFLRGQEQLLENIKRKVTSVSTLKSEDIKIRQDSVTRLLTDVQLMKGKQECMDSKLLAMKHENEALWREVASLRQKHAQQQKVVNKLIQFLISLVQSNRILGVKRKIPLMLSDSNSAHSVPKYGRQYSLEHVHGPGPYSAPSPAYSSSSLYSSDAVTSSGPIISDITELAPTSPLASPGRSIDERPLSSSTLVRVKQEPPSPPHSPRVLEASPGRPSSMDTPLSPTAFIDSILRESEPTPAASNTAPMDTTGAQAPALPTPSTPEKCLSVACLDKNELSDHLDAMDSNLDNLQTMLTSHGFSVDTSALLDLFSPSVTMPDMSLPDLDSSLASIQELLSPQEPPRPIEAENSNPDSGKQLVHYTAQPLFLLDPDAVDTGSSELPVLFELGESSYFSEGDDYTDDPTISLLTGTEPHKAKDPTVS", "assay": "enhancement of HSF1-driven luciferase signal – cell-based, NIH3T3, luminescence, dose retest, confirmation (AID 435004);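 also: stress induced by proteasome inhibitor MG132 added 30 min after compound; actives raise luminescence as potentiators of the MG132 stress response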", "type": "functional"}, "Protein RecA": {"target": "T3, Protein RecA (Mycobacterium tuberculosis, UniProt P9WHJ3)", "T3 sequence (P9WHJ3 whole entry)": "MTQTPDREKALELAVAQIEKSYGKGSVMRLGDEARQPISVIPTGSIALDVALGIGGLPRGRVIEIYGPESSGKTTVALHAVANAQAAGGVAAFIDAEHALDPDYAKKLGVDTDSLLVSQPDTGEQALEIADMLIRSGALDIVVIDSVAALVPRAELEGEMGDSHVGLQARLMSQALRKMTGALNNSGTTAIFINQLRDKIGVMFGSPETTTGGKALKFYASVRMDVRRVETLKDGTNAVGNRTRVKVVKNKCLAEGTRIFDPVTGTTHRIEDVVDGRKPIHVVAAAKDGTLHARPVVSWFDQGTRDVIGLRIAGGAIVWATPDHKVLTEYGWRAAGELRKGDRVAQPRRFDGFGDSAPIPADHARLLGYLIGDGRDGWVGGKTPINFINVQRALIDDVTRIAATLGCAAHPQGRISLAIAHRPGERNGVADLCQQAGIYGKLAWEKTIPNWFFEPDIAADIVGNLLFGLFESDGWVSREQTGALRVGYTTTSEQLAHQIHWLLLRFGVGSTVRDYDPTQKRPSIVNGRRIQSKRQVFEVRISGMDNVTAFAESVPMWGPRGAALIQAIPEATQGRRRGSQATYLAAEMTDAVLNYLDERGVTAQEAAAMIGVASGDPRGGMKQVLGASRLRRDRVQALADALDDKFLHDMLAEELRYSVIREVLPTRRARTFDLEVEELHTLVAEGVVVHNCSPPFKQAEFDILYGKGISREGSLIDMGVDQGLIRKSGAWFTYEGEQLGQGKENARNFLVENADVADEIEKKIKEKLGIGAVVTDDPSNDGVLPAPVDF", "assay": "Fluorescence Cell-Free Homogeneous Dose Retest to Identify Inhibitors of RecA-Intein Splicing Activity. [Related pubchem assays (depositor defined):AID2097, AID2223, AID489010, AID492950]", "type": "functional"}, "Paired box protein Pax-8": {"target": "Paired box protein Pax-8 (Homo sapiens, UniProt Q06710)", "sequence (Q06710 whole entry)": "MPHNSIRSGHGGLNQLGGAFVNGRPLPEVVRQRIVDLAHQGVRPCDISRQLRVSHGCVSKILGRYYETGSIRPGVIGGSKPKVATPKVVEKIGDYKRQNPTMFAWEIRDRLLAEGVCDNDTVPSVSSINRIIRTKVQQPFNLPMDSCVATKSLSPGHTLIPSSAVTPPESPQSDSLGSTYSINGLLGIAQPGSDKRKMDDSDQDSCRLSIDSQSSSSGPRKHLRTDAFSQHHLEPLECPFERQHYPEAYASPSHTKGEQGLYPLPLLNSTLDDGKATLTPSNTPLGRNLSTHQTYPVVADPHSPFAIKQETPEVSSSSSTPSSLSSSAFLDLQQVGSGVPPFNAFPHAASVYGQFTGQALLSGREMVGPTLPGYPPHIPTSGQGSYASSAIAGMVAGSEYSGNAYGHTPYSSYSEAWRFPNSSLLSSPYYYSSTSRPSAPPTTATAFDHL", "assay": "PAX8 transcriptional activity inhibition in RMG-I – RMG-I cells, luciferase, cherry-pick, dose response (AID 687027);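 also: luciferase reporter driven by Pax8 target thyroperoxidase promoter measured by SteadyGlo luminescence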", "type": "functional, cell-based"}, "[11]": {"assay": "A2780 cell killing – plate reader, dry powder samples, cytotoxicity control, dose response (AID 743046)", "type": "functional, cell-based"}, "[12]": {"assay": "OVCAR-3 cell viability loss – plate reader, dry powder samples, PAX8 inhibitor project, dose response (AID 743044)", "type": "functional, cell-based"}, "[13]": {"assay": "IGROV1 cell killing – plate reader, dry powder samples, PAX8 inhibitor project, dose response (AID 743043)", "type": "functional, cell-based", "details": "IGROV-1"}, "[14]": {"assay": "OVCAR8 cell viability loss – plate reader, dry powder samples, PAX8 project, dose response (AID 743197)", "type": "functional, cell-based", "details": "OVCAR-8"}, "[15]": {"target": "T4, Adenosylmethionine-8-amino-7-oxononanoate aminotransferase (Mycobacterium tuberculosis, UniProt P9WQ81)", "T4 sequence (P9WQ81 whole entry)": "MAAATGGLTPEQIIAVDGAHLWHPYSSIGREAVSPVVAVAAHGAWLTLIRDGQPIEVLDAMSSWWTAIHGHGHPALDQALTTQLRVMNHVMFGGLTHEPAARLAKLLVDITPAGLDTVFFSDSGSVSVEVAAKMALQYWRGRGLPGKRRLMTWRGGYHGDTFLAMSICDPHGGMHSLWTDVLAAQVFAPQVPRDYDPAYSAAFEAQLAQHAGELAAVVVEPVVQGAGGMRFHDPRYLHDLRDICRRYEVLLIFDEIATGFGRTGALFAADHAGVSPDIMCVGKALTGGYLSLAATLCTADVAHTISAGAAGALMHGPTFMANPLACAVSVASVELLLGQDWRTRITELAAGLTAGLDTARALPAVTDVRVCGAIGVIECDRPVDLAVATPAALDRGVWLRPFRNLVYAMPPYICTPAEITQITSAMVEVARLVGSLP", "assay": "Mycobacterium tuberculosis BioA enzyme inhibitor Measured in Biochemical System Using Plate Reader - 2163-02_Inhibitor_Dose_CherryPick_Activity.", "type": "functional, Mycobacterium tuberculosis UT205"}, "Beta-galactosidase": {"target": "Beta-galactosidase (Escherichia coli, UniProt Q8VNN2)", "sequence (Q8VNN2 whole entry)": "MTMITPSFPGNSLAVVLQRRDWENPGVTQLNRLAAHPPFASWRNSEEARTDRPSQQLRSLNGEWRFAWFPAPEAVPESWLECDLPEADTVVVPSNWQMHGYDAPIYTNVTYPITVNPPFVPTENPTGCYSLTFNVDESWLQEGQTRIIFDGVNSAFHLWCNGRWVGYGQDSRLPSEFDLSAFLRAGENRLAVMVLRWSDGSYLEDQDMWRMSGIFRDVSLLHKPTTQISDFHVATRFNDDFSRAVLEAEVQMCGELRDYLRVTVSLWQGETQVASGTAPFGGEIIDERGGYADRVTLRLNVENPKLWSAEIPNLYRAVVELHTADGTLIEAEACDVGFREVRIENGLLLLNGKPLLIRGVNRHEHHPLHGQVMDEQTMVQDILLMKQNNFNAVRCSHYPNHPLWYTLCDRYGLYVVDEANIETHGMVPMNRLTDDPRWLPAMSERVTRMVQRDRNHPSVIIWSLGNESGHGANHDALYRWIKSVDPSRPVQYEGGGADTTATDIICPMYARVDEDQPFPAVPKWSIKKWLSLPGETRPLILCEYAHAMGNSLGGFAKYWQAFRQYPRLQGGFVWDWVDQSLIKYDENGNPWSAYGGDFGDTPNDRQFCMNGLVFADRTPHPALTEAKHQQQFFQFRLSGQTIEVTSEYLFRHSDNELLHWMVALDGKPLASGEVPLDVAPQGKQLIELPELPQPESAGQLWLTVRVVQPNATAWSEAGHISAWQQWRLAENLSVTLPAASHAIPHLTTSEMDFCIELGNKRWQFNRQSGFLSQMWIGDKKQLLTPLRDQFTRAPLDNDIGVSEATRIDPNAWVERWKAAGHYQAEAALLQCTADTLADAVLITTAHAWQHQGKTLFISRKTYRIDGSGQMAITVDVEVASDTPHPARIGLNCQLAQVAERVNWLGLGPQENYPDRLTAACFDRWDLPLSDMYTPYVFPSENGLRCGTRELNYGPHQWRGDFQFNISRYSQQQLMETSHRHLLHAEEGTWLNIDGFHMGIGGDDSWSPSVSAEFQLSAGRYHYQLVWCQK", "assay": "Dose response counterscreen for EBI2 assay utilizing the enzyme, b-galactosidase.", "type": "functional"}}, "note": "Activity calls are given as the source filed them."}
{"smiles": "CCCCc1ccc(NC(=O)C(=O)NCCN2CCN(Cc3ccc([N+](=O)[O-])cc3)CC2)cc1", "values": [{"measurement": "IC50", "setting": "[1]", "value": "> 80 µM (inactive)"}, {"measurement": "AC50", "setting": "[2]", "value": "1.13 µM (active)"}, {"measurement": "AC50", "setting": "[3]", "value": "64.2 µM (active)"}, {"measurement": "AC50", "setting": "[4]", "value": "4.92 µM (active)"}, {"measurement": "IC50", "setting": "Protein Wnt-3a", "value": "1.8 µM (active)"}]}
{"smiles": "CCCCc1ccc(NC(=O)c2cnccn2)cc1", "values": [{"measurement": "AC50", "setting": "[5]", "value": "> 52 µM (inactive)"}, {"measurement": "AC50", "setting": "[6]", "value": "12.4 µM (active)"}, {"measurement": "AC50", "setting": "[7]", "value": "9.42 µM (active)"}]}
{"smiles": "CSc1nc(N(C)CCO)c2sc3nc(-c4ccco4)c4c(c3c2n1)CCC4", "values": [{"measurement": "IC50", "setting": "[8]", "value": "5.59 µM (active)"}]}
{"smiles": "CCOc1ccc(NC(S)=Nc2cccc3cnccc23)cc1", "values": [{"measurement": "IC50", "setting": "[9]", "value": "> 50 µM (not active)"}]}
{"smiles": "CCCCn1c(NC(=O)c2ccco2)c(S(=O)(=O)c2ccc(C)cc2)c2nc3ccccc3nc21", "values": [{"measurement": "IC50", "setting": "[9]", "value": "> 50 µM (not active)"}, {"measurement": "EC50", "setting": "[10]", "value": "152 µM (active)"}, {"measurement": "EC50", "setting": "Protein RecA", "value": "> 380 µM (inactive)"}]}
{"smiles": "C[C@@H]1CCCCO[C@@H](CN(C)S(=O)(=O)c2ccc(Cl)cc2)[C@H](C)CN([C@H](C)CO)C(=O)c2cc(NS(=O)(=O)c3ccc(Cl)cc3)ccc2O1", "values": [{"measurement": "AC50", "setting": "Paired box protein Pax-8", "value": "3.27 µM (active)"}, {"measurement": "AC50", "setting": "[11]", "value": "55.8 µM (active)"}, {"measurement": "AC50", "setting": "[12]", "value": "17.7 µM (active)"}, {"measurement": "AC50", "setting": "[13]", "value": "21.7 µM (active)"}, {"measurement": "AC50", "setting": "[14]", "value": "19.5 µM (active)"}]}
{"smiles": "COc1ccc(-c2nc3ccc(Cl)cn3c2Cc2ccccc2)cc1OC", "values": [{"measurement": "AC50", "setting": "[15]", "value": "10.6 µM (active)"}]}
{"smiles": "COC(=O)c1ccc(/N=c2\\sc(C(=O)OC)cc(=O)n2C)cc1", "values": [{"measurement": "IC50", "setting": "Beta-galactosidase", "value": "> 80 µM (inactive)"}]}
{"smiles": "COc1ccc(CCNC(=O)c2cnc3n(c2=O)CCS3)cc1OC", "values": [{"measurement": "AC50", "setting": "[15]", "value": "13.7 µM (active)"}]}
{"smiles": "COc1ccc(/C=N/N=C/c2cnc(O)c(C#N)c2Nc2ccccc2)cc1", "values": [{"measurement": "IC50", "setting": "Beta-galactosidase", "value": "> 80 µM (inactive)"}]}
